Assay results: patent US12233129B2, “Methods and compositions for the treatment of cancer” (priority 2019, dated 2025)
“Also recorded” adds a separate entry of the source.

Tests used:
Assay type in all cases: cell-based, human
[1] = test system: SW480 colon cancer cell line; assay: Flow cytometry of stem cell markers; details: VTD 72 hours
Protocol: FIG. 24 panels A-D are examples of FlowJo analysis of CD44 biomarker in SW480 cells treated with VTD for 72 hours.

[2] = test system: SW480; assay: Long-term (10 days) exposure colony formation / cell viability; details: VTD 10-300 μM, mutant p53
Protocol: Because colon cancer cells develop resistance to chemotherapy after an initial response, we decided to investigate whether VTD can potentiate the cytotoxic effect of 5-FU when cells receiving long-term therapy mimicking the in vivo therapy. Cells were treated with VTD for 10 days.
FIG. 20: Sensitization of colon cancer cells to a long-term suboptimal dose of 5-fluorouracil exposure when combined with VTD. (A-D) (A) HCT-116, (B) LoVo, (C) SW-480, and (D) U2OS were treated with VTD (10-300 μM) for 10 days. […] (E-G) (E) HCT-116, (F) LoVo, and (G) U-2OS were treated with suboptimal doses of 5-FU and VTD (50 and 100 μM) for 10 days. […] (H-I) A series of flow cytometry assays using an antibody against the CD44 cancer stem cell marker illustrated that VTD can target CD44+ colon cancer stem cells and eventually eliminate them in a dose-dependent manner, implicating VTD as a potential cancer stem cell-targeting therapy. (J) Tumor tissue lysates from 48 patients with colon cancer along the matched adjacent normal colon tissue lysates were probed with anti-UBXN2A and anti-Actin antibodies, followed by quantitation and normalization of signals. […] (I) The proposed mechanism action of VTD. VTD increases the expression of UBXN2A, which releases the p53 from mot-2's sequestration and, together with standard chemotherapy, can cause an effective tumor suppression.

[3] = test system: LoVo; assay: Flow cytometry of CD44+ cancer stem cells; details: intermediate-dose of VTD
Text: (§1) Based on the significant effect of long-term exposure in LoVo and U2OS, we hypothesized that VTD could be a potential complementary strategy alongside 5-FU, an effective drug with a high rate of resistant events in colon tumors. To answer this question, we first determined the minimum concentration of 5-FU that has no effect or a very mild effect on cell viability after 10 days' exposure in three cell lines HCT-116, LoVo, and U2OS (data not shown). We performed the 10 days' treatment using a combination of a low dose of VTD (50 μM or 100 μM) plus a suboptimal dose of 5-FU (1 μM or 5 μM).
(§2) FIG. 20: Sensitization of colon cancer cells to a long-term suboptimal dose of 5-fluorouracil exposure when combined with VTD. (A-D) (A) HCT-116, (B) LoVo, (C) SW-480, and (D) U2OS were treated with VTD (10-300 μM) for 10 days. […] (E-G) (E) HCT-116, (F) LoVo, and (G) U-2OS were treated with suboptimal doses of 5-FU and VTD (50 and 100 μM) for 10 days. […] (J) Tumor tissue lysates from 48 patients with colon cancer along the matched adjacent normal colon tissue lysates were probed with anti-UBXN2A and anti-Actin antibodies, followed by quantitation and normalization of signals. […]

[4] = test system: U2OS; assay: Flow cytometry of CD44+ cancer stem cells; details: intermediate-dose of VTD
Text: as §1, §2

[5] = test system: UBXN2A; assay: Western blot of UBXN2A protein in treated HCT-116 cells; details: VTD 20 and 40 μM, 24 hours
Protocol: Our in vivo results encouraged us to screen for compounds that can enhance expression of UBXN2A. Using the UBXN2A promoter upstream of a luciferase construct that was transiently transfected to HCT-116 cells, we performed a high-throughput drug screen with 1800 FDA approved drugs, synthetic compounds, and natural products. Forty-eight hours after transfection, cells were treated with compounds for 24 hours in triplicate (FIG. 16A). […] We looked at protein expression of UBXN2A as well as P47 (another member of the UBXD family) to confirm the selectivity of VH as a selective enhancer of UBXN2A protein in cells. […] We observed a different level of VH-dependent UBXN2A induction in different segments of the gastrointestinal system (esophagus to rectum; data not shown).
The alkaloid fraction of Veratrine is known to contain a mixture of two major alkaloid esters: Veratridine (VTD) and Cevadine. VTD, with a veratroyl group at the 3-OR1 position and a free hydroxyl group at the 15-O-R2 position can function as an antihypertensive plant-derived substance. […]
A cell-based screen was conducted in search of compounds that induce the expression of the UBXN2A gene. […] A glow luciferase activity assay was conducted in triplicate followed by semi-quantitative RT-PCR and WB analysis for UBXN2A, p47 (negative control), or GAPDH± Veratrine or its purified form VTD. […]

COc1ccc(C(=O)O[C@H]2CC[C@@]3(C)[C@@H]4CC[C@H]5[C@]6(O)C[C@H](O)[C@@]7(O)[C@@H](CN8C[C@@H](C)CC[C@H]8[C@@]7(C)O)[C@]6(O)C[C@@]53O[C@]24O)cc1OC [VTD, Veratridine]
CD44+ stem cell population [1]: significant reduction | CD133+ stem cell population [1]: significant reduction | LgR5+ stem cell population [1]: significant reduction | cell viability, long-term exposure [2]: no response | abundance of CD44+ cancer stem cells [3]: reduces the abundance of the CD44+ cancer stem cells | abundance of CD44+ cancer stem cells [4]: reduces the abundance of the CD44+ cancer stem cells | UBXN2A protein expression (WB) [5]: induces UBXN2A expression in a dose-dependent manner; also recorded: increases UBXN2A protein levels in a dose-dependent manner
